Data set [1] can be described thus: Metabolic clearance in hepatocytes, dog. It is filed as in vitro ADME. The note with it: male, beagle, cryopreserved dog hepatocytes, read-out: Hepatocyte Clearance (t1/2 min) Dog. The procedure: (§1) Metabolic Clearance in Hepatocytes
(§2) Testosterone was obtained from Cerilliant (Round Rock, TX). 7-Hydroxycoumarin was obtained from Sigma-Aldrich (St.
(§3) Louis, MO). Ten-donor male pooled cryopreserved human hepatocytes, cryopreserved male Sprague Dawley rat hepatocytes, cryopreserved male ICR/CD-1 mouse hepatocytes, cryopreserved male beagle dog hepatocytes, In VitroGro HI Medium (Incubation), and InVitroGro HT Medium (Thawing) were obtained from Bioreclamation IVT (Baltimore, MD). All solvents were obtained from commercial sources and used without further purification.Test compound was prepared as a 1 mM stock solution in DMSO. A 2 µM solution of test compound and testosterone was prepared (7 - hydroxycoumarin was prepared at 20 µM) in In VitroGro HI Medium (Incubation). These solutions were placed in a sterile incubator set to maintain 37°C, 5% CO2, and 98% humidity to pre-warm. Cryopreserved hepatocytes were prepared at a concentration of 2 x 10^6 living cells/mL in incubation media and placed in the incubator to pre-warn. The compound solutions and hepatocyte mixtures were then combined at a ratio of 1:1 (v:v). The final volume of the reaction mixture was 750 µL, containing 1 µM test compound and 1 x 10^6 cells/mL. The reaction mixture was placed in the incubator on a plate shaker. After 0, 15, 30, 60, 90, and 120 minutes of incubation, 100 µL of reaction mixtures were removed from the incubation plate and mixed with 150 µL of ice-cold acetonitrile in a designated well of a 96-well crash plate. The 96-well crash plate was placed on ice for 15 min, and samples were centrifuged (3,600 rpm, 10 min, 4 °C) to precipitate protein.
(§4) The supernatants were diluted 1:1 (v/v) with water containing tolbutamide, (internal standard for positive and negative modes, respectively) in a 96-well shallow injection plate. This plate was sealed for LC-MS analysis. All measurements

The nature of data set [2]: Metabolic clearance in hepatocytes, human. It is filed as in vitro ADME. As to conditions: male, pooled cryopreserved human hepatocytes (ten donors), read-out: Hepatocyte Clearance (t1/2 min) Human. The procedure:
as §1, §2, §3, §4

A short description of data set [3]: Mouse plasma PK after oral gavage. Format: in vivo. The note with it: female, CD1, mouse, mice, 10 mg/kg PO. The protocol: For PK analysis of pyrrolopyrimidine analogs in mouse, rat, and dog plasma, the oral formulation was prepared as a solution containing 20% (w/v) Captisol in 25 mM NaH2PO4 buffer (pH 2). Compounds were administered orally by gavage at 10 mg/kg to female CD1 mice. After dosing, plasma samples were collected to characterize the PK profiles at 0.25, 0.5, 1, 2, 4, 8, 12 and 24 h post-dose. The plasma concentration of compound was determined by protein precipitation with acetonitrile and liquid chromatography with mass spectrometric detection (LC-MS/MS). Parameters were estimated using Phoenix (WinNonlin) pharmacokinetic software version 6.1.0 using a non-compartmental approach consistent with the oral route of administration. PK analysis of 26 in plasma and pancreas followed a similar analytical method as above, with minor modifications. Compound 26 was suspended in a vehicle consisting of 0.5% methylcellulose (400 cP) and 0.1% Tween80 in water and administered to BALB/c nude mice by oral gavage at 0.3, 1, 3, 10, 30 mg/kg. Plasma and pancreas were sampled from 5 mice per group following a single oral administration at 1, 4, 8, 12, 24 h post-dose.

Data set [4] is described as follows: Metabolic clearance in hepatocytes, mouse. It is filed as in vitro ADME. The note with it: male, ICR/CD-1, cryopreserved mouse hepatocytes, read-out: Hepatocyte Clearance (t1/2 min) Mouse. The protocol:
as §1, §2, §3, §4

The nature of data set [5]: Plasma protein binding (RED dialysis), dog. Format: in vitro ADME. As to conditions: male, beagle, pH 7.4. An excerpt: Verapamil hydrochloride and tamoxifen were obtained from Sigma-Aldrich. […]
Pooled mixed gender human donor plasma, Sprague Dawley male rat plasma, CD-1 (ICR) male mouse plasma and male beagle dog plasma were obtained from Bioreclamation Inc. (Westbury, NY). Reusable Teflon base plate, RED Device inserts, and BupH Phosphate Buffered Saline packs (0.1 M sodium phosphate and 0.15 M sodium chloride when dissolved in 0.5 L water) were obtained from Thermo Scientific (Waltham, MA). Propranolol was obtained from Sigma-Aldrich (St. Louis, MO). All solvents were obtained from commercial sources and used without further purification.
Frozen plasma was thawed and the pH of plasma and BupH phosphate buffered saline was adjusted to 7.4 prior to dialysis. Into each well of a reusable Teflon 48-well base plate a RED insert was placed open end up. Ten microliters (10 µL) of the test compound (0.1 mM in acetonitrile/water, 1:1 v/v) was added to 990 µL of plasma to achieve 1 µM final concentration. The spiked plasma (200 µL) was added to the sample chamber, which is indicated by the red retainer ring (donor side). To the other side (receiver side), 350 µL of BupH phosphate buffered saline (pH 7.4) was added. A buffer-to-buffer assay was also performed to measure equilibrium across the membrane in the absence of plasma protein.
Propranolol was used as a positive control. All samples were prepared in triplicate. The RED device base plate was then sealed and placed in a shaking incubator set to maintain 37°C and 200 rpm for four hours.
After incubation, 100 µL of each sample was combined with an equal volume of either plasma or buffer, to create a similar matrix for all samples. Blank buffer was added to plasma samples, and vice versa. Samples from the incubation, along with the original compound-spiked plasma samples, were prepared for analysis in the same manner. Protein precipitation by addition of two parts of ice-cold acetonitrile to one part of reaction volume was carried out. To ensure complete protein precipitation samples were sealed and placed overnight at 4°C. The next morning samples were centrifuged at 3,600 rpm for 15 minutes. The supernatants (70 µL) were supplemented with an equal volume of internal standard solution (0.15 µM verapamil in water) and subjected to LC-MS/MS analysis.

The values below come from article PMC9611727, “Optimization of a Novel Mandelamide-Derived Pyrrolopyrimidine Series of PERK Inhibitors” (Pharmaceutics, 2022).

For the compound `Cc1nc(N)c2c(-c3ccc(NC(=O)[C@H](O)c4cc(F)cc(C(F)(F)F)c4)cc3C)cn(C)c2n1` [Compound 39], the half-life at 1 µM in data set [1] was 223 min. In addition, the half-life at 1 µM in data set [2] is 277 min. In data set [3], the AUC(0-t) was determined as 86400 ng·h/mL, the Cmax is 14300 ng/mL, the bioavailability was 78% and the half-life is 174 min. Further, the half-life at 1 µM in data set [4] came to 320 min. Moreover, the fraction unbound at 4 h, 1 µM in data set [5] is less than 0.001.

Consider `Cc1nc(N)c2c(-c3ccc(NC(=O)[C@H](O)c4cccc(Cl)c4)cc3F)cn(C)c2n1` [Compound 48], for which the half-life at 1 µM in data set [1] amounted to 215 min. Further, the half-life at 1 µM in data set [2] is 556 min. In data set [3], the AUC(0-t) is 10900 ng·h/mL, the Cmax was determined as 3020 ng/mL, the bioavailability worked out at 70% and the half-life is 126 min. Moreover, in data set [4], the half-life at 1 µM stood at 53 min. Besides, in data set [5], the free fraction (fraction unbound) at 4 h, 1 µM is 0.004.

Consider `Cc1nc(N)c2c(-c3ccc(NC(=O)[C@H](O)c4cccc(Cl)c4)cc3C)cn(C)c2n1` [Compound 28], for which the half-life at 1 µM in data set [1] is 355 min. The half-life at 1 µM in data set [2] turned out to be 778 min. In addition, in data set [3], the AUC(0-t) was found to be 65800 ng·h/mL, the Cmax was found to be 14100 ng/mL, the bioavailability turned out to be 84% and the half-life is 144 min. Further, the half-life at 1 µM in data set [4] amounted to 62 min. The compound also gave a free fraction (fraction unbound) at 4 h, 1 µM in data set [5] of 0.017.

For the compound `Cc1nc(N)c2c(-c3ccc(NC(=O)[C@H](O)c4cccc(F)c4)c(F)c3F)cn(C)c2n1` [Compound 70, (R)-N-(4-(4-amino-2,7-dimethyl-7H-pyrrolo[2,3-d]pyrimidin-5-yl)-2,3-difluorophenyl)-2-(3-fluorophenyl)-2-hydroxyacetamide], the half-life at 1 µM in data set [1] stood at 268 min. For the same compound, the half-life at 1 µM in data set [2] worked out at 360 min. In data set [3], the exposure AUC(0-t) turned out to be 32300 ng·h/mL, the highest level (Cmax) was 9720 ng/mL, the bioavailability was 117% and the half-life was 120 min. The half-life at 1 µM in data set [4] came to 45 min. Besides, the unbound share (fraction unbound) at 4 h, 1 µM in data set [5] is 0.006.

With `Cc1nc(N)c2c(-c3ccc(NC(=O)[C@H](O)c4cccc(C(F)(F)F)c4)cc3C)cn(C)c2n1` [Compound 26], in data set [1], the half-life at 1 µM stood at 130 min. The half-life at 1 µM in data set [2] was 194 min. Also, in data set [3], the AUC(0-t) was determined as 126000 ng·h/mL, the Cmax stood at 17200 ng/mL, the bioavailability came out at 82% and the half-life was 210 min. Besides, in data set [4], the half-life at 1 µM turned out to be 118 min. Further, the fraction unbound at 4 h, 1 µM in data set [5] was 0.005.

Take `Cc1nc(N)c2c(-c3ccc(NC(=O)[C@H](O)c4cccc(F)c4)cc3C)cn(C)c2n1` [Compound 24]: the half-life at 1 µM in data set [1] was greater than 1000 min. Further, the half-life at 1 µM in data set [2] is 733 min. Moreover, in data set [3], the AUC(0-t) turned out to be 37500 ng·h/mL, the Cmax was found to be 13100 ng/mL, the bioavailability amounted to 77% and the half-life was 126 min. The half-life at 1 µM in data set [4] worked out at 31 min. The compound further had a fraction unbound at 4 h, 1 µM in data set [5] of 0.03.

For `Cc1nc(N)c2c(-c3cc(F)c(NC(=O)[C@H](O)c4cccc(F)c4)cc3C)cn(C)c2n1` [Compound 66], the half-life at 1 µM in data set [1] was determined as 39 min. Besides, the half-life at 1 µM in data set [2] was found to be 358 min. In data set [3], the exposure AUC(0-t) amounted to 39800 ng·h/mL, the Cmax worked out at 9610 ng/mL, the bioavailability was 126% and the half-life was 120 min. In addition, in data set [4], the half-life at 1 µM is 167 min. This compound also had a fraction unbound at 4 h, 1 µM in data set [5] of 0.018.

On to `Cc1nc(N)c2c(-c3ccc(NC(=O)[C@H](O)c4cc(F)cc(F)c4)cc3C)cn(C)c2n1` [Compound 38], for which the half-life at 1 µM in data set [1] is 460 min. In addition, in data set [2], the half-life at 1 µM was 897 min. In addition, in data set [3], the AUC(0-t) turned out to be 28900 ng·h/mL, the Cmax was 8600 ng/mL, the bioavailability worked out at 94% and the half-life is 120 min. For the same compound, in data set [4], the half-life at 1 µM is 805 min. The compound further showed a fraction unbound at 4 h, 1 µM in data set [5] of 0.016.

Take `Cc1cc(F)cc([C@@H](O)C(=O)Nc2ccc(-c3cn(C)c4nc(C)nc(N)c34)c(C)c2)c1` [Compound 41]: in data set [1], the half-life at 1 µM is 232 min. Also, the half-life at 1 µM in data set [2] turned out to be 68 min. Further, in data set [3], the AUC(0-t) is 26000 ng·h/mL, the maximum concentration (Cmax) is 12500 ng/mL, the bioavailability came to 40% and the half-life is 162 min. For the same compound, in data set [4], the half-life at 1 µM came to 24 min. This compound gave a fraction unbound at 4 h, 1 µM in data set [5] of 0.012.

For `Cc1nc(N)c2c(-c3ccc(NC(=O)[C@H](O)c4cccc(F)c4)c(F)c3C)cn(C)c2n1` [Compound 65], in data set [1], the half-life at 1 µM came out at 567 min. Besides, the half-life at 1 µM in data set [2] amounted to 390 min. In addition, in data set [3], the area under the curve AUC(0-t) was 40100 ng·h/mL, the highest level (Cmax) was 8150 ng/mL, the bioavailability amounted to 129% and the half-life is 132 min. The half-life at 1 µM in data set [4] amounted to 64 min. This compound also gave a fraction unbound at 4 h, 1 µM in data set [5] of 0.013.
